# Numbers after ± are expanded uncertainties.
# Tests used:
# [1] = xn = mol fraction of the nth substance listed; settings: 298 K, 100 kPa, Crystal, X-ray diffraction
# [2] = excess molar enthalpy (molar enthalpy of mixing); xn = mol fraction of the nth substance listed; settings: 298 K, 100 kPa, Crystal, Calvet calorimetry
SMILES,mass density ([1]; x1 = 0.2209),mass density ([1]; x1 = 0.4319),mass density ([1]; x1 = 0.7519),excess molar enthalpy ([2]; x1 = 0.2209),excess molar enthalpy ([2]; x1 = 0.4319),excess molar enthalpy ([2]; x1 = 0.7519),mass density ([1]; x1 = 0.0847),mass density ([1]; x1 = 0.1557),mass density ([1]; x1 = 0.2937),excess molar enthalpy ([2]; x1 = 0.0847),excess molar enthalpy ([2]; x1 = 0.1557),excess molar enthalpy ([2]; x1 = 0.2937)
[O-2].[O-2].[Th+4] [thorium dioxide] + [O-2].[O-2].[U+4],10730 ± 90 kg/m3,10510 ± 90 kg/m3,10070 ± 90 kg/m3,-1.65 ± 0.765 kcal/mol,0.37 ± 1.12 kcal/mol,-0.282 ± 0.669 kcal/mol,–,–,–,–,–,–
[O-2].[O-2].[Zr+4] [zirconium oxide] + [O-2].[O-2].[U+4],–,–,–,–,–,–,10630 ± 90 kg/m3,10260 ± 90 kg/m3,9570 ± 70 kg/m3,-2.18 ± 1 kcal/mol,-2.12 ± 0.837 kcal/mol,0.194 ± 0.765 kcal/mol
